Data on eleven compounds can be found in ChEMBL document CHEMBL1201862, “PubChem BioAssay data set” (2004).

Test systems include A498; UO-31; 786-0; SN12C; CAKI-1; HOP-92; OVCAR-5; HCC 2998; NCI-H460; SF-268; TK-10; OVCAR-8; Malme-3M; SK-MEL-28; NCI-H226; SF-295; HL-60; U-251; SNB-75; SW-620.
Common to all, as to assay: NCI anticancer screen, dose series, 48 h

SMILES strings stand for the structures.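 Growth conditions: 96-well plates. Treatment: test compound, 48 hours, 5 concentrations. Analysis: linear interpolation between bracketing concentrations; unreached endpoints set to highest concentration. The concentration for 50% growth inhibition is given as GI50.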 The source made the active and inactive calls. Cut-off read from the data, not from the text of the source: active = GI50 up to about 1.1 µM and inactive = higher. Some results are limits rather than exact numbers.

On to `COc1cc(/C=C(\C#N)c2nc3ccccc3o2)ccc1O`, for which the GI50 with A498 is 16.3 µM (inactive); with UO-31, 25.5 µM (inactive); in the assay on 786-0, 24.9 µM (inactive); in the assay with SN12C, 34.7 µM (inactive); in the assay on CAKI-1, 17.3 µM (inactive); in the assay with HOP-92 it was 14.1 µM (inactive). In addition, the GI50 with OVCAR-5 is 22 µM (inactive); in the assay with HCC 2998 it was 20.9 µM (inactive); in the assay with NCI-H460 it was 15 µM (inactive); in the assay with SF-268, 19.9 µM (inactive); in the assay on TK-10, 24.4 µM (inactive); with OVCAR-8 it was 21.6 µM (inactive). In addition, the GI50 is 19.8 µM (inactive) in the assay with Malme-3M; 17.7 µM (inactive) in the assay with SK-MEL-28; 15.4 µM (inactive) in the assay on NCI-H226; 17.6 µM (inactive) with SF-295; 19.6 µM (inactive) in the assay on HL-60; 12.3 µM (inactive) with U-251.
`Cc1ccc(S(=O)(=O)N2CCCN(S(=O)(=O)c3ccc(C)cc3)CC2)cc1`: the GI50 in the assay with SNB-75 is > 100 µM (inactive); with A498, 2.75 µM (inactive); in the assay on UO-31, > 100 µM (inactive); in the assay with SN12C, > 100 µM (inactive); in the assay on HOP-92, > 100 µM (inactive); in the assay with HCC 2998, > 100 µM (inactive). The GI50 with NCI-H460, with SF-268, with TK-10, in the assay with OVCAR-8, in the assay on SW-620 and in the assay with SK-MEL-28 was > 100 µM (inactive) throughout. Besides, the GI50 with NCI-H226, with SF-295 and with U-251 was > 100 µM (inactive) in each case.
As to `N#Cc1c(N)sc2c1-c1ccccc1OC2`, the GI50 with A498 was 29.3 µM (inactive); in the assay with UO-31, 25.2 µM (inactive); in the assay with SN12C it was 19.7 µM (inactive); with HOP-92 it was 44 µM (inactive); in the assay on OVCAR-5, 31.6 µM (inactive); in the assay with HCC 2998, 26 µM (inactive). The GI50 in the assay with NCI-H460 is 36.4 µM (inactive); in the assay with SF-268, 37.1 µM (inactive); in the assay with TK-10 it was 32.1 µM (inactive); in the assay with Malme-3M it was 41.2 µM (inactive); with SW-620, 35.5 µM (inactive); with SK-MEL-28, 44.2 µM (inactive). Moreover, the GI50 in the assay on NCI-H226 was 93.5 µM (inactive); with HL-60, 16.4 µM (inactive); in the assay with U-251, 45.1 µM (inactive).
Take `CC1=C2C=CC(=O)C[C@@]2(C)CCC1`: the GI50 was 69.2 µM (inactive) in the assay with SNB-75; > 100 µM (inactive) in the assay on A498; > 100 µM (inactive) in the assay on UO-31; > 100 µM (inactive) in the assay with 786-0; > 100 µM (inactive) with SN12C; > 100 µM (inactive) in the assay with CAKI-1. Also, the GI50 in the assay on HOP-92, in the assay on OVCAR-5, in the assay with HCC 2998, in the assay with NCI-H460, in the assay on SF-268 and in the assay with TK-10 was > 100 µM (inactive) in each case. Besides, the GI50 in the assay on OVCAR-8, in the assay on Malme-3M, with SW-620, in the assay on SK-MEL-28, in the assay on SF-295 and with HL-60 was > 100 µM (inactive) each time. Besides, the GI50 with U-251 was > 100 µM (inactive).
With `COC(=O)CCC(NC(=S)N/N=C(\C)c1cccs1)C(=O)OC` (configuration not stated), the GI50 in the assay on SNB-75, in the assay with A498, in the assay with UO-31, with 786-0, in the assay with SN12C and in the assay with HOP-92 was > 100 µM (inactive) in each case. Besides, the GI50 in the assay on OVCAR-5, in the assay with HCC 2998, with NCI-H460, in the assay with SF-268, in the assay with TK-10 and in the assay on OVCAR-8 was > 100 µM (inactive) each time. Also, the GI50 in the assay on Malme-3M, in the assay with SW-620, with SK-MEL-28, in the assay with NCI-H226, with SF-295 and in the assay on U-251 was > 100 µM (inactive) each time.
Turning to `O=C(NC1C(=O)NC(CCc2ccccc2)NC1=O)OCc1ccccc1` (configuration not stated), the GI50 in the assay on SNB-75, in the assay on A498, with UO-31, with 786-0, in the assay with SN12C and in the assay with CAKI-1 was > 100 µM (inactive) throughout. The GI50 with HOP-92, with OVCAR-5, in the assay with NCI-H460, in the assay on SF-268, with TK-10 and in the assay on OVCAR-8 was > 100 µM (inactive) in each case. The GI50 with Malme-3M, in the assay with SW-620, in the assay with SK-MEL-28, with NCI-H226, with SF-295 and in the assay with HL-60 was > 100 µM (inactive) each time. Besides, in the assay on U-251, the GI50 was > 100 µM (inactive).
For `CC(C)(O)[C@H](CCO)O[Si](c1ccccc1)(c1ccccc1)C(C)(C)C`, the GI50 is 10.9 µM (inactive) in the assay on SNB-75; 16.5 µM (inactive) with A498; 11 µM (inactive) with UO-31; 4.11 µM (inactive) in the assay with SN12C; 10.8 µM (inactive) with HOP-92; 14.9 µM (inactive) with OVCAR-5. Besides, the GI50 in the assay with HCC 2998 is 6.01 µM (inactive); in the assay with NCI-H460, 11.2 µM (inactive); with SF-268, 10.5 µM (inactive); in the assay with TK-10, 13.2 µM (inactive); with OVCAR-8, 10.9 µM (inactive); in the assay on Malme-3M, 17.1 µM (inactive). Further, the GI50 was 12.8 µM (inactive) with SW-620; 15.2 µM (inactive) in the assay with SK-MEL-28; 6.35 µM (inactive) in the assay on SF-295; 4.99 µM (inactive) in the assay on HL-60; 12.4 µM (inactive) in the assay with U-251.
Take `O=c1c2ccccc2nc(-c2ccccc2)n1NC(=S)Nc1ccccc1`: the GI50 in the assay with SNB-75 was 38.3 µM (inactive); with A498, > 100 µM (inactive); with UO-31, 81.7 µM (inactive); in the assay with 786-0 it was > 100 µM (inactive); in the assay on SN12C, > 100 µM (inactive); in the assay on CAKI-1, > 100 µM (inactive). Also, the GI50 in the assay with HOP-92, in the assay with OVCAR-5, in the assay on NCI-H460, in the assay with SF-268, with TK-10 and in the assay on OVCAR-8 was > 100 µM (inactive) throughout. The GI50 in the assay on Malme-3M was > 100 µM (inactive); in the assay with SW-620, > 100 µM (inactive); in the assay on SK-MEL-28, 34.8 µM (inactive); in the assay on NCI-H226 it was > 100 µM (inactive); in the assay with SF-295, > 100 µM (inactive); in the assay on HL-60 it was > 100 µM (inactive). The GI50 in the assay with U-251 was > 100 µM (inactive).
Take `CC(=O)OC(C)(C)CCC(=O)[C@](C)(O)[C@H]1[C@H](O)C[C@@]2(C)[C@@H]3CC=C4C(C)=C(OC5OC(CO)C(O)C(O)C5O)C(=O)C[C@@H]4[C@]3(C)C(=O)C[C@]12C` (some centres not stated): the GI50 in the assay on SNB-75, in the assay with A498, in the assay with UO-31, in the assay with 786-0, in the assay with SN12C and in the assay on CAKI-1 was > 100 µM (inactive) each time. In addition, the GI50 in the assay with HOP-92, in the assay on OVCAR-5, in the assay on HCC 2998, in the assay on NCI-H460, in the assay on SF-268 and with TK-10 was > 100 µM (inactive) in each case. The GI50 with OVCAR-8, with Malme-3M, in the assay with SW-620, with SK-MEL-28, in the assay with NCI-H226 and with SF-295 was > 100 µM (inactive) in each case. Moreover, in the assay with U-251, the GI50 was > 100 µM (inactive).
Take `CC(=O)c1ccc(NCN2C(=O)c3ccccc3C2=O)cc1`: the GI50 in the assay with SNB-75 is 30.5 µM (inactive); in the assay on A498 it was > 100 µM (inactive); in the assay with UO-31, > 100 µM (inactive); in the assay with 786-0 it was > 100 µM (inactive); in the assay on SN12C, > 100 µM (inactive); in the assay on CAKI-1, > 100 µM (inactive). The GI50 with HOP-92, with OVCAR-5, in the assay with HCC 2998, with NCI-H460, in the assay with SF-268 and with TK-10 was > 100 µM (inactive) throughout. For the same compound, the GI50 was > 100 µM (inactive) in the assay on OVCAR-8; > 100 µM (inactive) in the assay on Malme-3M; > 100 µM (inactive) with SW-620; > 100 µM (inactive) in the assay with SK-MEL-28; > 100 µM (inactive) in the assay with SF-295; 36.9 µM (inactive) in the assay on HL-60. For the same compound, the GI50 with U-251 was > 100 µM (inactive).
Regarding `COc1cc2ccccc2c2cc([N+](=O)[O-])oc12`, the GI50 in the assay with SNB-75 is 2.62 µM (inactive); in the assay on A498, 0.177 µM (active); with UO-31, 0.618 µM (active); in the assay on 786-0, 0.374 µM (active); in the assay on SN12C it was 0.927 µM (active); with CAKI-1 it was 0.48 µM (active). For the same compound, the GI50 in the assay on HOP-92 was 0.78 µM (active); in the assay with OVCAR-5 it was 3.39 µM (inactive); with NCI-H460, 0.183 µM (active); with SF-268, 0.537 µM (active); in the assay with TK-10, 0.173 µM (active); in the assay with OVCAR-8, 1.9 µM (inactive). In addition, the GI50 in the assay with Malme-3M was 0.126 µM (active); with SW-620 it was 0.893 µM (active); with SK-MEL-28, 0.261 µM (active); in the assay on NCI-H226, 1.11 µM (active); in the assay on SF-295, 1.39 µM (inactive); with HL-60, 5.26 µM (inactive). Also, the GI50 in the assay with U-251 is 1.17 µM (inactive).
